According to ChEMBL document CHEMBL1150882, “Nitrogen-containing furanose and pyranose analogues from Hyacinthus orientalis” (J Nat Prod, 1998):

Key:
[1] = biological target: Lysosomal alpha-glucosidase (Rattus norvegicus) (UniProt Q6P7A9); details: Wistar, 1000 uM
Description: Inhibition of Wistar rat liver lysosomal alpha-glucosidase at 1000 uM

[2] = Inhibition of Wistar rat intestinal alpha alpha-trehalase
[3] = Inhibition of yeast alpha-glucosidase; parameters: species or system Saccharomyces cerevisiae
[4] = biological target: Lactase/phlorizin hydrolase (Rattus norvegicus, UniProt Q02401); experiment: Inhibition of Wistar rat intestinal lactase
[5] = Inhibition of bovine liver beta-galactosidase; parameters: species or system Bos taurus
[6] = Inhibition of Caldocellum saccharolyticum beta-glucosidase; parameters: species or system Caldicellulosiruptor saccharolyticus
[7] = Inhibition of almond beta-glucosidase; parameters: species or system Prunus dulcis
[8] = biological target: Sucrase-isomaltase, intestinal (Rattus norvegicus, UniProt P23739); experiment: Inhibition of Wistar rat intestinal sucrase
[9] = biological target: Sucrase-isomaltase, intestinal (Rattus norvegicus) (UniProt P23739); details: Wistar, 1000 uM
Description: Inhibition of Wistar rat intestinal isomaltase at 1000 uM

[10] = Inhibition of rice alpha-glucosidase; parameters: species or system Oryza sativa
[11] = biological target: T1, Uncharacterized protein (Sus scrofa, UniProt I3LIR5); experiment: Inhibition of pig kidney alpha alpha-trehalase
T1 sequence (I3LIR5 whole entry): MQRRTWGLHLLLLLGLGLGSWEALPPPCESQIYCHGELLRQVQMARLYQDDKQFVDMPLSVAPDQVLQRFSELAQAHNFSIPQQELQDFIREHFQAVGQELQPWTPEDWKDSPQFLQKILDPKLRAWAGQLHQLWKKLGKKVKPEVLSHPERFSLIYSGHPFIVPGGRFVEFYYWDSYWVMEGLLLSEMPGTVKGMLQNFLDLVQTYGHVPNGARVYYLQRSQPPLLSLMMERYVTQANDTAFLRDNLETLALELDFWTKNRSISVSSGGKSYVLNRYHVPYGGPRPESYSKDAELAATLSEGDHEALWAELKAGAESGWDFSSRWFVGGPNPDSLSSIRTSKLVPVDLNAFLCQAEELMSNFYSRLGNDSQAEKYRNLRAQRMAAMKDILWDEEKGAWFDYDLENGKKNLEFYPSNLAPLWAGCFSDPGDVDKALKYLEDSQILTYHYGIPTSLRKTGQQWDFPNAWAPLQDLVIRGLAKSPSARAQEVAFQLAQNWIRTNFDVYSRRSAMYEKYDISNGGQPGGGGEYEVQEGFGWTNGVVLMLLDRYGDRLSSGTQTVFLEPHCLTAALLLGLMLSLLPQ

[12] = biological target: T2, Uncharacterized protein (Sus scrofa) (UniProt I3LIR5); details: 1000 uM
T2 sequence (whole entry): T1 sequence (I3LIR5 whole entry)
Description: Inhibition of pig kidney alpha alpha-trehalase at 1000 uM

[13] = tested on: Oryza sativa; details: 1000 uM
Description: Inhibition of rice alpha-glucosidase at 1000 uM

[14] = tested on: Caldicellulosiruptor saccharolyticus; details: 1000 uM
Description: Inhibition of Caldocellum saccharolyticum beta-glucosidase at 1000 uM

[15] = biological target: Lactase/phlorizin hydrolase (Rattus norvegicus) (UniProt Q02401); details: Wistar, 1000 uM
Description: Inhibition of Wistar rat intestinal lactase at 1000 uM

[16] = biological target: T3, Tissue alpha-L-fucosidase (Bos taurus, UniProt Q2KIM0); experiment: Inhibition of bovine epididymis alpha-L-fucosidase at 1000 uM
T3 sequence (Q2KIM0 whole entry): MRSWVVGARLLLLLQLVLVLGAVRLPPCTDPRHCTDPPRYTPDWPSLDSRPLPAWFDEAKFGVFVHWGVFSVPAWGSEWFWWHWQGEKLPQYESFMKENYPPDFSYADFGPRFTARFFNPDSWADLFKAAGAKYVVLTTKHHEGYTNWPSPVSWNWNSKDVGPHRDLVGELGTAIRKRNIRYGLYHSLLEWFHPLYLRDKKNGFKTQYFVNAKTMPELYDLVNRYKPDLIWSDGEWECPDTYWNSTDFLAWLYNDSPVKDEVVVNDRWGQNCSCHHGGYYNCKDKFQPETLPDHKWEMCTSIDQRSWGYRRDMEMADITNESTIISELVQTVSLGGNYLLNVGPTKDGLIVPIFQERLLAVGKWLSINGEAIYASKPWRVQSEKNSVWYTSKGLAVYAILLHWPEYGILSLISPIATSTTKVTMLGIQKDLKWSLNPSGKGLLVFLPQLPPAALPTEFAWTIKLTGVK

[17] = species on record: Bos taurus; details: 1000 uM
Description: Inhibition of bovine liver beta-galactosidase at 1000 uM

[18] = biological target: Sucrase-isomaltase, intestinal (Rattus norvegicus) (UniProt P23739); details: Wistar, 1000 uM; remark: listed apart in the source
Description: Inhibition of Wistar rat intestinal sucrase at 1000 uM

[19] = biological target: Lysosomal alpha-glucosidase (Rattus norvegicus) (UniProt Q6P7A9); details: Wistar, 1000 uM; remark: listed apart in the source
Description: Inhibition of Wistar rat intestinal maltase at 1000 uM

[20] = species on record: Rattus norvegicus; details: Wistar, 1000 uM
Description: Inhibition of Wistar rat intestinal alpha alpha-trehalase at 1000 uM

Sequence of Sucrase-isomaltase, intestinal (Rattus norvegicus) (P23739 1-1013 limits assumed): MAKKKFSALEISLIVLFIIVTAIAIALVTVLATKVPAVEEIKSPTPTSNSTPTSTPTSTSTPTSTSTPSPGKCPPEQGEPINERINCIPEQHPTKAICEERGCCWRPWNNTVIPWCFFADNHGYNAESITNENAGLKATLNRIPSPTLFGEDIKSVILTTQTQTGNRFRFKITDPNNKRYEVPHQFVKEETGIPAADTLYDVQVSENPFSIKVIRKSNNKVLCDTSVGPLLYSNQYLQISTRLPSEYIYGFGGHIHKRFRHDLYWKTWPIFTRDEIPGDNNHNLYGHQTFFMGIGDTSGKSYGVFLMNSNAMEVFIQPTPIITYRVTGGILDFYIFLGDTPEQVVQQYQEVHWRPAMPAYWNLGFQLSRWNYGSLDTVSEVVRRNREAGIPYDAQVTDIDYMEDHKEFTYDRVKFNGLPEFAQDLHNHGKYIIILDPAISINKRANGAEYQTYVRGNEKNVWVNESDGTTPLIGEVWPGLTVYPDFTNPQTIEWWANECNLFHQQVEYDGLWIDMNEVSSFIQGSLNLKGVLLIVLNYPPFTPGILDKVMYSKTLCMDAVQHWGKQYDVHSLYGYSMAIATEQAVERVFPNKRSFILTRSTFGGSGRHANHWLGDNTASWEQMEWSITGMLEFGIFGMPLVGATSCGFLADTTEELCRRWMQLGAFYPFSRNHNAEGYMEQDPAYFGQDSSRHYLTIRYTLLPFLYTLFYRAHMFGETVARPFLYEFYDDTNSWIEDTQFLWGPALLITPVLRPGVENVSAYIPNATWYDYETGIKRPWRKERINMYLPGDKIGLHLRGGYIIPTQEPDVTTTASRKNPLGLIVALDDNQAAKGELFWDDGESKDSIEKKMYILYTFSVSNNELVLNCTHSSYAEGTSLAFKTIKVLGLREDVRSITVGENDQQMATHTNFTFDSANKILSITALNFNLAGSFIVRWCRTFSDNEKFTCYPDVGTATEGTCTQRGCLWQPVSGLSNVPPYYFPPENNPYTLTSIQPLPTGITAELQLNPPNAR
Sequence of Sucrase-isomaltase, intestinal (Rattus norvegicus) (P23739 1014-1841 limits assumed): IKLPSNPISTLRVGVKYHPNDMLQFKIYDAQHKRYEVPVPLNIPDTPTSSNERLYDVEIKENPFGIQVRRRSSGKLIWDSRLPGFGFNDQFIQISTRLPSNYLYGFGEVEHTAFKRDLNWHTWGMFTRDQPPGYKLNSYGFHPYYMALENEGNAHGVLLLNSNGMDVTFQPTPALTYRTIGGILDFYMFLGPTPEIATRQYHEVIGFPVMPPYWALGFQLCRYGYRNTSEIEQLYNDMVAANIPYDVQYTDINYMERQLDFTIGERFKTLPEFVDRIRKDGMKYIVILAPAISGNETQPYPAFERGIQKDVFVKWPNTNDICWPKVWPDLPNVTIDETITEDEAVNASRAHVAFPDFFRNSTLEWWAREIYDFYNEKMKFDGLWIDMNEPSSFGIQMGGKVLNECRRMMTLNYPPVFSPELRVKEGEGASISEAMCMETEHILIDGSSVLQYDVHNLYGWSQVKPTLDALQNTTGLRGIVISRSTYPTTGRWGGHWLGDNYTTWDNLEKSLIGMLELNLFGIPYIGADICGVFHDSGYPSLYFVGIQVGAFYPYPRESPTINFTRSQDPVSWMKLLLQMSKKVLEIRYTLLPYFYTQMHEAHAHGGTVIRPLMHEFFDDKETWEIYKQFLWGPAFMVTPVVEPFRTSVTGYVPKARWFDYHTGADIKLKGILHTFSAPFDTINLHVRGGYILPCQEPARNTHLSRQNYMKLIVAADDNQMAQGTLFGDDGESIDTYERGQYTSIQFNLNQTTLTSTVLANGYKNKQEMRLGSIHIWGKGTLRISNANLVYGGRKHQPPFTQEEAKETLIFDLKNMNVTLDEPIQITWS
Sequence of Lysosomal alpha-glucosidase (Rattus norvegicus) (Q6P7A9 whole entry): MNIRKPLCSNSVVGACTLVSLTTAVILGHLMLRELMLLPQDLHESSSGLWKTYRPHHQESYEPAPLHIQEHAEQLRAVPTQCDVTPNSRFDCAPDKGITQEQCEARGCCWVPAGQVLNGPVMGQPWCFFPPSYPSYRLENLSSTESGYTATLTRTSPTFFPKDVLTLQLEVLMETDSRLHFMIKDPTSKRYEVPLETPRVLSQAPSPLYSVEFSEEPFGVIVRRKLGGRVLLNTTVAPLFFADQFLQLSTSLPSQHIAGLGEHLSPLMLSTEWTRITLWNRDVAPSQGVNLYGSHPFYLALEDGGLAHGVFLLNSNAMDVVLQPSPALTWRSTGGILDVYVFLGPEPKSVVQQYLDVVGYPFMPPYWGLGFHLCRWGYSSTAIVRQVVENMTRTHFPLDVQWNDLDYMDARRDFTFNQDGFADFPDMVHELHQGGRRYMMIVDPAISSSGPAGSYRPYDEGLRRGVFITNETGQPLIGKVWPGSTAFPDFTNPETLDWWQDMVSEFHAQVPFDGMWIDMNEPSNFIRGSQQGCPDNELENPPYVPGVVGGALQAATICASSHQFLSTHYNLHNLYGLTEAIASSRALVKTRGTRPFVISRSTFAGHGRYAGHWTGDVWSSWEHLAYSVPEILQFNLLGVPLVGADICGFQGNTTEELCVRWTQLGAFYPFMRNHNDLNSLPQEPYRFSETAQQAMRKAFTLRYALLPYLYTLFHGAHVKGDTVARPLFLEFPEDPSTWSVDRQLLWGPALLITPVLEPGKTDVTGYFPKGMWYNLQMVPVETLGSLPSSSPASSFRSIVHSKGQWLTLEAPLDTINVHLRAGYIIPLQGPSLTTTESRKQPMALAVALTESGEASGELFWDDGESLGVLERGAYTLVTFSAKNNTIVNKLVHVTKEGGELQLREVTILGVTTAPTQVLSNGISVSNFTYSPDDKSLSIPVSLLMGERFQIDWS
Sequence of Sucrase-isomaltase, intestinal (P23739 1-1013 limits assumed): as the sequence (P23739 1-1013 limits assumed) above
Sequence of Sucrase-isomaltase, intestinal (P23739 1014-1841 limits assumed): as the sequence (P23739 1014-1841 limits assumed) above
Sequence of Lactase/phlorizin hydrolase (Q02401 868-1928 limits assumed): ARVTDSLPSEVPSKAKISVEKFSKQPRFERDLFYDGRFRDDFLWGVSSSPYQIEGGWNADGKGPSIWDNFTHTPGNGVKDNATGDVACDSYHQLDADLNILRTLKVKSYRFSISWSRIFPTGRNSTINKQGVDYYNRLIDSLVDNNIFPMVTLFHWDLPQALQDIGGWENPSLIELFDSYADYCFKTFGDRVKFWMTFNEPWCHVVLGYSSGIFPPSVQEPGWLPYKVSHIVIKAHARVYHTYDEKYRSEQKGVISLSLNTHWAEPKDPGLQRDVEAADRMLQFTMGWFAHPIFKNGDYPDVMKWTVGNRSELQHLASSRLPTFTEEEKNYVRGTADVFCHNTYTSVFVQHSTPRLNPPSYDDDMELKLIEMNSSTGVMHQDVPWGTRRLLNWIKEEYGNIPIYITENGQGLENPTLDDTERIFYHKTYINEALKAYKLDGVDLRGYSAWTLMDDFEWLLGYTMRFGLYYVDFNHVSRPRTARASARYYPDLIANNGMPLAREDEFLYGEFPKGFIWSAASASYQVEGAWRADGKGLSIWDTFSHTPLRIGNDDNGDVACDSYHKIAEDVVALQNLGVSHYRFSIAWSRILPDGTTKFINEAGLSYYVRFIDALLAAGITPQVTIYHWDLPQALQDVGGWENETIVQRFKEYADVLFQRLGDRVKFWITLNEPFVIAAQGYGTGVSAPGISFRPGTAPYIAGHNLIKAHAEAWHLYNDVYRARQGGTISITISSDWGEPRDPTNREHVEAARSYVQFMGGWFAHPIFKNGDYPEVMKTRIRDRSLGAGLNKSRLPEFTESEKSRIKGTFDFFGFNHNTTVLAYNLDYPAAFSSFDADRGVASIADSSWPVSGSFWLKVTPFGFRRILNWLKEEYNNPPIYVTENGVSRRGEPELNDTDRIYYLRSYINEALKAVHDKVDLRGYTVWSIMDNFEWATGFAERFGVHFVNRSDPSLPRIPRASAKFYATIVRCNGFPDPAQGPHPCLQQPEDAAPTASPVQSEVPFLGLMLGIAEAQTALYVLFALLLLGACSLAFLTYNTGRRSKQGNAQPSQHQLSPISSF
Sequence of Lactase/phlorizin hydrolase (Rattus norvegicus) (Q02401 868-1928 limits assumed): as above

Compound: OCC(O)[C@H]1N[C@H](CO)[C@@H](O)[C@@H]1O (mixture of isomers)
- inhibition [1]: < 50%
- IC50 [2]: 2 µM
- Ki [3]: 54 µM
- IC50 [4]: 4 µM
- IC50 [5]: 4.4 µM
- IC50 [6]: 3.8 µM
- Ki [7]: 1.5 µM
- IC50 [8]: 300 µM
- inhibition [9]: < 50%
- IC50 [10]: 130 µM
- IC50 [11]: 5 µM

Compound: OCC[C@H]1N[C@@H](CO)[C@H](O)[C@H]1O
- inhibition [1]: < 50%
- inhibition [12]: < 50%
- inhibition [13]: < 50%
- inhibition [14]: < 50%
- inhibition [15]: < 50%
- IC50 [16]: 50 µM
- inhibition [17]: < 50%
- inhibition [18]: < 50%
- inhibition [19]: < 50%
- inhibition [9]: < 50%
- inhibition [20]: < 50%

Compound: OCC[C@H]1N[C@H](CO)[C@@H](O)[C@@H]1O
- inhibition [12]: < 50%
- IC50 [2]: 380 µM
- IC50 [4]: 320 µM
- IC50 [5]: 60 µM
- IC50 [6]: 380 µM
- IC50 [8]: 11 µM
- inhibition [9]: < 50%
- IC50 [10]: 2.2 µM

Compound: OC[C@H]1N[C@H](CO)[C@@H](O)[C@@H]1O
- Ki [3]: 7 µM
- IC50 [5]: 2.5 µM
- IC50 [6]: 11 µM
- inhibition [18]: < 50%
- Ki [7]: 10 µM
- IC50 [10]: 200 µM
